Experimental data reported in patent EP4678638A1, “NEW E3 UBIQUITIN LIGASE LIGAND, PROTEIN DEGRADATION AGENT AND USE THEREOF” (priority 2023, dated 2024).
Like-named read-outs stand apart in the source and are kept apart here.

Legend:
CAL-62 = assay: CCK-8 proliferation, CAL-62; type: cell-based; conditions: Homo sapiens, 72 hours, read-out: Inhibitory activity (IC50) on tumor cell proliferation, CAL-62
Procedure: (§1) The tumor cells used herein were cultured in a cell culture medium listed in table A1 at 37°C in an incubator with 5% CO2. Prior to experimentation, all cell lines used were correctly identified by STR profiling, and tested negative for mycoplasma contamination using a mycoplasma detection kit through routine screenings. Table A1. Tumor cells and cell culture medium used in the present disclosure
(§2) IC50 values of the compounds of the present disclosure (including the compounds in Table 1, and compounds of examples) were measured using the Meilun Cell Counting Kit-8 kit from Dalian Meilun Biotech Co., Ltd. Assay details are as follows: tumor cells were seeded in a 96-well plate at a density listed in Table A2. After 24h, 100 µL of the inoculated cells were treated with 0.5µL of the compounds of the present disclosure (including the compounds in Tables 1 and 2, and compounds of examples) at 10 different successively decreasing concentrations (starting at the highest concentration of 10µM; 5-fold serial dilutions). After the cells were treated with the compounds of the present disclosure for a period of time, the cell viability detection reagent was added to the culture medium for cell viability assessment according to the instructions provided with the CCK-8 kit. […] The growth inhibition of the compounds of the present disclosure on cells was plotted by Prism Graphpad software, and the IC50 values of the compounds of the present disclosure were calculated therefrom. […] Seeding protocol and treatment time for tumor cells

CCRF-CEM = assay: CCK-8 proliferation, CCRF-CEM; type: cell-based, Human; conditions: Homo sapiens, CCRF-CEM; CCK-8; 96 hours; read-out: Inhibitory activity (IC50) on tumor cell proliferation, CCRF-CEM
Procedure, shortened: (§3)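 Cells seeded, then after 24 h treated with 10 concentrations (top 10 µM, 5-fold serial dilution) for a line-specific time at 37°C, 5% CO2. Viability read by CCK-8; IC50 fitted from growth-inhibition curves.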

MGC-803 = assay: CCK-8 proliferation, MGC-803 (heads: MGC80-3, MGC803); type: cell-based, Human; conditions: Homo sapiens, MGC-803, CCK-8, 72 hours
Procedure, shortened: as §3

Jurkat = assay: CCK-8 proliferation, Jurkat; type: cell-based, Human; conditions: Homo sapiens, Jurkat; CCK-8; 96 hours; read-out: Inhibitory activity (IC50) on tumor cell proliferation, Jurkat
Procedure, shortened: as §3

SW620 = assay: CCK-8 proliferation, SW620; type: cell-based; conditions: Homo sapiens, SW-620; CCK-8; 96 hours; read-out: Inhibitory activity (IC50) on tumor cell proliferation, SW620
Procedure, shortened: as §3

Vcap = assay: CCK-8 proliferation, Vcap; type: cell-based; conditions: Homo sapiens, 96 hours, read-out: Inhibitory activity (IC50) on tumor cell proliferation, Vcap
Procedure: as §1
IC50 values of the compounds of the present disclosure (including the compounds in Table 1, and compounds of examples) were measured using the Meilun Cell Counting Kit-8 kit from Dalian Meilun Biotech Co., Ltd. Assay details are as follows: tumor cells were seeded in a 96-well plate at a density listed in Table A2. After 24h, 100 µL of the inoculated cells were treated with 0.5µL of the compounds of the present disclosure (including the compounds in Tables 1 and 2, and compounds of examples) at 10 different successively decreasing concentrations (starting at the highest concentration of 10µM; 5-fold serial dilutions). […] The growth inhibition of the compounds of the present disclosure on cells was plotted by Prism Graphpad software, and the IC50 values of the compounds of the present disclosure were calculated therefrom. […]

LNcap = assay: CCK-8 proliferation, LNcap; type: cell-based; conditions: Homo sapiens, LNCaP; CCK-8; 96 hours; read-out: Inhibitory activity (IC50) on tumor cell proliferation, Lncap
Procedure, shortened: as §3

BCR-ABL = target: T1, BCR-ABL (Homo sapiens, UniProt P00519+P11274+Q96SW2, E27K); assay: Western blot degradation of BCR-ABL (K562 Cell); type: cell-based; conditions: Table D15
T1 construct: evaluate the effects of the compounds of the present disclosure on the expression of target proteins in cells; endogenous in cells; host or cells: K562
T1 sequence (P11274+P00519 fused, stated change not applied): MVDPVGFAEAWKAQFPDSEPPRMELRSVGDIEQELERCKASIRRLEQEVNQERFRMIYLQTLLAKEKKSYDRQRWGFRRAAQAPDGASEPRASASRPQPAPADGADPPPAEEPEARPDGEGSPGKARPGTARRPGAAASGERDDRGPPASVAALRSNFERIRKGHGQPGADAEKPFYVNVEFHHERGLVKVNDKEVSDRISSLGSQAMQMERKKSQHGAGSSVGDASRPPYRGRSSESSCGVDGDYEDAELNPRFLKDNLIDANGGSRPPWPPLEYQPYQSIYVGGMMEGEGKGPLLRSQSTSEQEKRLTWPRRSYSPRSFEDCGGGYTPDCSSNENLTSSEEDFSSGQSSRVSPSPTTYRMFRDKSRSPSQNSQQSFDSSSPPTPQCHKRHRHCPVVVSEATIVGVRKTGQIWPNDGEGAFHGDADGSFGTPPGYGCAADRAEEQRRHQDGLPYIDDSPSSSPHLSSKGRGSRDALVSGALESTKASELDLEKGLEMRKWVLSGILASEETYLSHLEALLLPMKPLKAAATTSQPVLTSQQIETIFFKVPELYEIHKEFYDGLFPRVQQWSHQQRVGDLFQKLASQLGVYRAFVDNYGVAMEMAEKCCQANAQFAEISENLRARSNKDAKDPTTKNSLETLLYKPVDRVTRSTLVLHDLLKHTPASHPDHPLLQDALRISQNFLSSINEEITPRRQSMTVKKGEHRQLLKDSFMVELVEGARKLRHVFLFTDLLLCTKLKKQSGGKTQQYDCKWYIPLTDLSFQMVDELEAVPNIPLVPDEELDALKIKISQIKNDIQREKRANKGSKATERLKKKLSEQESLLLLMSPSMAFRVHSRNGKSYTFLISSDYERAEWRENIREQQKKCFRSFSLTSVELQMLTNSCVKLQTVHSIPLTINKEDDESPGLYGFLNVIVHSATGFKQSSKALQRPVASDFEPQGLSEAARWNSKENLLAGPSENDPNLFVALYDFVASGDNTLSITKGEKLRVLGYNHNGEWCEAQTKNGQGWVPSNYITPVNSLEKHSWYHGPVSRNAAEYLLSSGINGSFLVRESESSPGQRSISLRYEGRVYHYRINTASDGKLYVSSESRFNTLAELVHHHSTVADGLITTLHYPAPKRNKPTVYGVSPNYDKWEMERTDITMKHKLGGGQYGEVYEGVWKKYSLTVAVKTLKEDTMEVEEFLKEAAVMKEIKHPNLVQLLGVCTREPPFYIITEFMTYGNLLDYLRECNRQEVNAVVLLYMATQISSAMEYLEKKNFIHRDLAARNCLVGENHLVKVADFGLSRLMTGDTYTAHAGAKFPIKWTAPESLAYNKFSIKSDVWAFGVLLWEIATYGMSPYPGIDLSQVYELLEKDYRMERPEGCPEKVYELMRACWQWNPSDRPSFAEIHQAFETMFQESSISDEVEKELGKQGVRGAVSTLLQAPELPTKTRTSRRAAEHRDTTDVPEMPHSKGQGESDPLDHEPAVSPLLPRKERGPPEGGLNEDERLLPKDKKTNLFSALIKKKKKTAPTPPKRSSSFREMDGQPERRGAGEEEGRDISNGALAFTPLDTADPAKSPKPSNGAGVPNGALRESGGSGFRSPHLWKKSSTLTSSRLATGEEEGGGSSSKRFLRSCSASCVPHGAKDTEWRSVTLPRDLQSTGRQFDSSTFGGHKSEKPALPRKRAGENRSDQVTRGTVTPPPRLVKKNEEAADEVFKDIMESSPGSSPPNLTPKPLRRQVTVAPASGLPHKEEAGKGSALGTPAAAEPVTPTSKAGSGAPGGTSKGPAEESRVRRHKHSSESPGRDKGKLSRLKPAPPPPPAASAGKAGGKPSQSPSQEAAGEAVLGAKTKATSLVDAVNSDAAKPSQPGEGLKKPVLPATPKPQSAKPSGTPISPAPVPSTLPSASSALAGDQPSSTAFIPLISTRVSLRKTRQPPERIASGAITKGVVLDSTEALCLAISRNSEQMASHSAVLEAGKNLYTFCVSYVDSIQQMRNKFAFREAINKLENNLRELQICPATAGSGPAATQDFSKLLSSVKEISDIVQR
T1 sequence (Q16531 whole entry, stated change not applied, further chain): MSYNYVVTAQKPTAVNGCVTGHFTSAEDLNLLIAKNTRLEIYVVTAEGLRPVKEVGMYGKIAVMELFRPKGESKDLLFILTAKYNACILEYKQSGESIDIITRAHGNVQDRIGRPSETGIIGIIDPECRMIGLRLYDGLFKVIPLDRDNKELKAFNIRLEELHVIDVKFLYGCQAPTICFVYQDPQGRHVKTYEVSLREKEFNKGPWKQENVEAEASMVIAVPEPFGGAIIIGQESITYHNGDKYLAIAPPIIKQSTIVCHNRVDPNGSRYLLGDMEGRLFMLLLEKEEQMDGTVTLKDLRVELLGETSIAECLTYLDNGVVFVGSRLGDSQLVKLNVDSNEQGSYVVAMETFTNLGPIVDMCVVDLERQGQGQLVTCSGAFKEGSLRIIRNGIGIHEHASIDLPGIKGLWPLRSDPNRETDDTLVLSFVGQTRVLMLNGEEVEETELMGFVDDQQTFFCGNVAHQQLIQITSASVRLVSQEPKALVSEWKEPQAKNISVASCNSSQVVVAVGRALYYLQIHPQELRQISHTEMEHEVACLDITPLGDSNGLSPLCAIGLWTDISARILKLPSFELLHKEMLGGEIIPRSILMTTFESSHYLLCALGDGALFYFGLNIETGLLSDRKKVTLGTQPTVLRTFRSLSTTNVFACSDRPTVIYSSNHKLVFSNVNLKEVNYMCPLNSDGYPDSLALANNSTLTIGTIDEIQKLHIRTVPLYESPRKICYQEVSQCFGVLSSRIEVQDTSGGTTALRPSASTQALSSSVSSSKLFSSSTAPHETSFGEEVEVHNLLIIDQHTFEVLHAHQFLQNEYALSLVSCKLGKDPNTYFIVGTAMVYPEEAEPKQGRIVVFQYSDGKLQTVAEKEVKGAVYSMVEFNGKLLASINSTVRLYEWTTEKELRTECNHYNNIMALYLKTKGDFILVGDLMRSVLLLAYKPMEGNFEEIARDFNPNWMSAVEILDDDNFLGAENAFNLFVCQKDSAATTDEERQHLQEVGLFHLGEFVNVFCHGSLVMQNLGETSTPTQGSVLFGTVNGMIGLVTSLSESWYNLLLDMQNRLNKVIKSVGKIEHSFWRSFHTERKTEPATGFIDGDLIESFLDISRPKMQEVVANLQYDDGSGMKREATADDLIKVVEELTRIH
T1 sequence (Q96SW2 whole entry, stated change not applied): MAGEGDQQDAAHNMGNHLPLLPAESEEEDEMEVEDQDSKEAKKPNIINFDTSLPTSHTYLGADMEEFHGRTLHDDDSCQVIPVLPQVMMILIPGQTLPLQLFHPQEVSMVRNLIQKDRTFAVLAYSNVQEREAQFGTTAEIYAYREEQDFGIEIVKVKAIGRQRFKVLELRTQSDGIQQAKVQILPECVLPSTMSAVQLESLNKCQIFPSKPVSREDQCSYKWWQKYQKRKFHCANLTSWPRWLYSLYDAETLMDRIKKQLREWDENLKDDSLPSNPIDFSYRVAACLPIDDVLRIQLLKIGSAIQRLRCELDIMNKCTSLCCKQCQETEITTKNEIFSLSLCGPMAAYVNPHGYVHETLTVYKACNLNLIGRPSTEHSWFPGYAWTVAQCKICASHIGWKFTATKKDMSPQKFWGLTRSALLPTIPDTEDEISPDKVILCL
Procedure: (§4) Conventional Western blot assay was performed to evaluate the effects of the compounds of the present disclosure on the expression of target proteins in cells.
(§5) (1) Cell Seeding and Protein Harvesting: The selected cells were processed according to the cell seeding procedure and protein harvesting procedure in Table III-2. Table III-2 Cell Seeding and Protein Harvesting Procedures
(§6) (2) To the collected supernatant, 5X SDS sample loading buffer was added, followed by denaturation at 95°C for 5 minutes. The denatured samples were then separated by SDS-PAGE electrophoresis on a polyacrylamide gel. Proteins were transferred to a nitrocellulose membrane (0.45 µm NC membrane), blocked with blocking buffer at room temperature for 1 hour, and subjected to antibody incubation and development procedures according to the antibody manufacturer's instructions (Cell Signaling Technology).
(§7) Half-Maximal Degradation Concentration value (the drug concentration required for degrading proteins by 50%, abbreviated as DC50) reads method: comparing the grayscale values of Western blot bands from drug-treated samples with those from blank DMSO-treated controls, and identifying the drug concentration range at which the grayscale value is half that of the DMSO-treated control bands.
DC50 values can be calculated using ImageJ software to measure grayscale values of Western blot bands from drug-treated samples. The concentration-response curve is fitted to estimate the drug concentration corresponding to half the grayscale value.
Target protein remaining (%) refers to the percentage of target protein remaining in hPBMC cells after treatment with protein degrader compounds.
Calculation method for target protein remaining (%): Use ImageJ software to measure grayscale values of Western blot bands from drug (protein degrader)-treated samples. The grayscale value of drug-treated bands is divided by that of internal control protein bands, and the resulting quotient is normalized to obtain the relative percentage of remaining target protein after protein degrader treatment. […]

CFPAC-1 = assay: CCK-8 proliferation, CFPAC-1; type: cell-based; conditions: Homo sapiens, 72 or 96 hours, read-out: Inhibitory activity (IC50) on tumor cell proliferation, CFPAC-1
Procedure: as §1, §2

[1] = target: T2, human Cereblon WT GST-tagged protein (Homo sapiens, UniProt Q96SW2); assay: CRBN binding, HTRF (CEREBLON BINDING kit); conditions: Table II-2, CRBN binding screening, HTRF
T2 construct: purchased CISBIO 64BDCRBNPEH
T2 sequence (Q96SW2 whole entry): as the sequence (Q96SW2 whole entry, stated change not applied) above
Procedure, shortened: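 After 3 h at room temperature, emission at 665 and 620 nm was measured in a homogeneous time-resolved fluorescence format. Compounds competed with a Thalidomide-Re probe for GST-tagged wild-type human CRBN, which was labelled with a Eu anti-GST antibody.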

BXPC-3 = assay: CCK-8 proliferation, BXPC-3; type: cell-based; conditions: Homo sapiens, 96 hours, read-out: Inhibitory activity (IC50) on tumor cell proliferation, BXPC-3
Procedure, shortened: as §3

THP-1 = assay: CCK-8 proliferation, THP-1; type: cell-based; conditions: Homo sapiens, 72 hours, read-out: Inhibitory activity (IC50) on tumor cell proliferation, THP-1
Procedure, shortened: as §3

AR = target: T3, AR (Homo sapiens, UniProt P10275+Q96SW2, T878A); assay: Western blot degradation of AR (LnCap Cell); type: cell-based; conditions: Table D11
T3 construct: evaluate the effects of the compounds of the present disclosure on the expression of target proteins in cells; endogenous in cells; host or cells: LnCap
T3 sequence (P10275 whole entry T878A): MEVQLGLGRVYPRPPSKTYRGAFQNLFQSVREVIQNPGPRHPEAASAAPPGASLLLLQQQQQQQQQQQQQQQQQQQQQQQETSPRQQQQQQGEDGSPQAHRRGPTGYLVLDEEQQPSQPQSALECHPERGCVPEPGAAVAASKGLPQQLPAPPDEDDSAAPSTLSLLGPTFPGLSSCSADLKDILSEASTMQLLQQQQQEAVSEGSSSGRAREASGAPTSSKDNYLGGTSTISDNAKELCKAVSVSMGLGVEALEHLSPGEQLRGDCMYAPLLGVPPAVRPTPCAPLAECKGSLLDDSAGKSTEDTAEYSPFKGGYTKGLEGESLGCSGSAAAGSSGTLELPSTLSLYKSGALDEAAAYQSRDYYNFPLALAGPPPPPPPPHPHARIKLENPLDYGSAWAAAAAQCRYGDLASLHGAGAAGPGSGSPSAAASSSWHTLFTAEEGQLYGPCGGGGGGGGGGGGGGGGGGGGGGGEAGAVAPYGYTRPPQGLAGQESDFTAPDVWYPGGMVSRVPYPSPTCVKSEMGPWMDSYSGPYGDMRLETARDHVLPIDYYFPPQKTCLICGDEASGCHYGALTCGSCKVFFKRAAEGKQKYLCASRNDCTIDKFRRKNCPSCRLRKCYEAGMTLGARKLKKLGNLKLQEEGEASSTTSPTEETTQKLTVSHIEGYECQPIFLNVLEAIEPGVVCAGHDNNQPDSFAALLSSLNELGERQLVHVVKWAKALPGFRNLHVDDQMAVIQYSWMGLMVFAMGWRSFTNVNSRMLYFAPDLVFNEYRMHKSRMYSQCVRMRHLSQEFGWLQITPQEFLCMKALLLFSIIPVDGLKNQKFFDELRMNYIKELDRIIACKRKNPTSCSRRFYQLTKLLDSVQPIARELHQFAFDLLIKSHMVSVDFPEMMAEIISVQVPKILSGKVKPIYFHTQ
T3 sequence (Q96SW2 whole entry): as the sequence (Q96SW2 whole entry, stated change not applied) above
T3 sequence (Q16531 whole entry partner): as the sequence (Q16531 whole entry, stated change not applied, further chain) above
Procedure: as §4, §5, §6, §7
DC50 values can be calculated using ImageJ software to measure grayscale values of Western blot bands from drug-treated samples. […]

H520 = assay: CCK-8 proliferation, H520; type: cell-based; conditions: Homo sapiens, NCI-H520, 96 hours, read-out: Inhibitory activity (IC50) on tumor cell proliferation, H520
Procedure: as §1, §2

DU-145 = assay: CCK-8 proliferation, DU-145; type: cell-based; conditions: Homo sapiens, 96 hours, read-out: Inhibitory activity (IC50) on tumor cell proliferation, DU-145
Procedure: as §1, §2

[2] = read-out: Inhibitory activity (IC50) on tumor cell proliferation, MGC803

| IC50 (CCRF-CEM) | IC50 (Jurkat) | IC50 (Vcap) | SMILES | IC50 (CAL-62) | IC50 (SW620) | Degradation of substrate protein BCR-ABL (substrate protein remaining %) (BCR-ABL) | IC50 (MGC-803; [2]) | Degradation of substrate protein AR (substrate protein remaining %) (AR) | further results |
| --- | --- | --- | --- | --- | --- | --- | --- | --- | --- |
| > 10000 nM | > 10000 nM | > 10000 nM | O=C1CC[C@H](N2Cc3cc(N4CCN(CC5CCN(c6ccc([C@@H]7c8ccc(O)cc8CC[C@@H]7c7ccccc7)cc6)CC5)CC4)ccc3C2=O)C(=O)N1 [ARV-471, reference compound] | > 10000 nM | 1000 to 5000 nM |  |  |  | IC50 (MGC-803; read-out: Inhibitory activity (IC50) on tumor cell proliferation, MGC80-3): > 10000 nM |
| 100 to 500 nM | 100 to 500 nM | 500 to 1000 nM | O=C1CCC(c2ccc(CN3CCN(c4ccc([C@@H]5c6ccc(O)cc6CC[C@@H]5c5ccccc5)cc4)CC3)cc2)C(=O)N1 (stereo partly drawn) [GT-03856, 3-(4-((4-(4-((1R,2S)-6-hydroxy-2-phenyl-1,2,3,4-tetrahydronaphthalen-1-yl)phenyl)piperazin-1-yl)methyl)phenyl)piperidine-2,6-dione] | 100 to 500 nM |  |  |  |  |  |
|  |  |  | O=C1CCC(c2ccc(CN3CCC(N4CCN(c5ncc(C(=O)Nc6ccc(OC(F)(F)Cl)cc6)cc5-c5cc[nH]n5)CC4)CC3)cc2F)C(=O)N1 (stereo not shown) [GT-04059, N-(4-(chlorodifluoromethoxy)phenyl)-6-(4-(1-(4-(2,6-dioxopiperidin-3-yl)-3-fluorobenzyl)piperidin-4-yl)piperazin-1-yl)-5-(1H-pyrazol-3-yl)nicotinamide] |  | 100 to 500 nM | A (A is defined as 0% ≤ substrate protein remaining % ≤ 80%) | 500 to 1000 nM |  |  |
|  |  |  | Cn1cc(-c2cc(S(C)(=O)=O)ccc2OCc2cccc(NC3CCC(=O)NC3=O)c2)c2cc[nH]c2c1=O (stereo not shown) [GT-04641, 3-((3-((2-(6-methyl-7-oxo-6,7-dihydro-1H-pyrrolo[2,3-c]pyridin-4-yl)-4-(methylsulfonyl)phenoxy)methyl)phenyl)amino)piperidine-2,6-dione] |  |  |  |  | A (A is defined as 0% ≤ substrate protein remaining % ≤ 80%) | inhibition at 0.5 µM ([1]; at 0.5µM, read-out: Inhibition rate (%) at 0.5µM): 20 to 30%; inhibition at 2 µM ([1]; at 2 µM, read-out: Inhibition rate (%) at 2 µM): 60 to 80%; IC50 (BXPC-3): 500 to 1000 nM; IC50 (THP-1): 500 to 1000 nM; IC50 (H520): 500 to 1000 nM |
|  |  |  | Cc1ccc(-c2c(C)noc2C)cc1N(CC1CCN(Cc2ccc(N3CCC(=O)NC3=O)cn2)CC1)c1ccc(C2(C#N)CC2)cc1 [GT-06411, 1-(4-((5-(3,5-dimethylisoxazol-4-yl)-2-methylphenyl)((1-((5-(2,4-dioxotetrahydropyrimidin-1(2H)-yl)pyridin-2-yl)methyl)piperidin-4-yl)methyl)amino)phenyl)cyclopropane-1-carbonitrile] |  |  |  |  | A (A is defined as 0% ≤ substrate protein remaining % ≤ 80%) | IC50 (DU-145): 500 to 1000 nM |

| SMILES | IC50 (CCRF-CEM) | IC50 (Jurkat) | IC50 (Vcap) | IC50 (CAL-62) | IC50 (SW620) | Degradation of substrate protein BCR-ABL (substrate protein remaining %) (BCR-ABL) | IC50 (MGC-803; [2]) | Degradation of substrate protein AR (substrate protein remaining %) (AR) | further results |
| --- | --- | --- | --- | --- | --- | --- | --- | --- | --- |
| Cc1ccc(C(=O)Nc2ccc(CN3CCN(Cc4ccc(C5CCC(=O)NC5=O)c(F)c4)CC3)c(C(F)(F)F)c2)cc1C#Cc1cnc2cccnn12 (stereo not shown) [GT-03937, N-(4-((4-(4-(2,6-dioxopiperidin-3-yl)-3-fluorobenzyl)piperazin-1-yl)methyl)-3-(trifluoromethyl)phenyl)-3-(imidazo[1,2-b]pyridazin-3-ylethynyl)-4-methylbenzamide] | 50 to 100 nM | 50 to 100 nM |  |  | 50 to 100 nM | A (A is defined as 0% ≤ substrate protein remaining % ≤ 80%) | 100 to 500 nM |  | IC50 (LNcap): 50 to 100 nM; IC50 (CFPAC-1): 100 to 500 nM |
